According to patent US10919841B2, “Monoamine reuptake inhibitors” (Research Triangle Institute, priority 2009, dated 2021):
Read-outs that look alike come from different tables or passages of the source. Marks after values point to notes of the source that are not given here.

Legend:
(h)NET [1] = target: T1, (h)NET (Homo sapiens, UniProt P23975); assay: competition binding with [125I]RTI-55 at (h)NET stably expressed in HEK293 cells; conditions: read-out: Binding, Ki NET; mean ± standard error of three independent experiments
T1 sequence (P23975 whole entry): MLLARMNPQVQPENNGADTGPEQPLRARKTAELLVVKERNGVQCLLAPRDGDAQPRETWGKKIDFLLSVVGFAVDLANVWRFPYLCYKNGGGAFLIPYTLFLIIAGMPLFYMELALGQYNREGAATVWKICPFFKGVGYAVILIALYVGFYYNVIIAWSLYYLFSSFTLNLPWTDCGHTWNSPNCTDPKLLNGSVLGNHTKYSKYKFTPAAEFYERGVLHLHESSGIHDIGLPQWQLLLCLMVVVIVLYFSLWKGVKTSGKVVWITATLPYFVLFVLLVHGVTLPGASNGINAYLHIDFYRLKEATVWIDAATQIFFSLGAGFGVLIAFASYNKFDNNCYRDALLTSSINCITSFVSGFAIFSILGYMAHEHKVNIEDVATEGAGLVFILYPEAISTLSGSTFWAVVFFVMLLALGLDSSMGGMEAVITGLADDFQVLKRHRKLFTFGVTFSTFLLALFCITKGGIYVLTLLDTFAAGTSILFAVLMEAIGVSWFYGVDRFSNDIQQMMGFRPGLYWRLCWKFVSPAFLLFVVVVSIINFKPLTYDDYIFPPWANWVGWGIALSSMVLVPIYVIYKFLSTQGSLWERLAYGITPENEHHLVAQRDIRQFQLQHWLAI

mice [2] = assay: locomotor activity, 1-h observation protocol; assay type: in vivo; conditions: for Emax / ED50: Mus musculus; for Emax: 0.5 h, read-out: Locomotor Activity 1-Hour % Peak Cocaine; for ED50 / Locomotor Activity 1-Hour ED50: dose to produce 50% of the compound's maximal effect, 1-h
mice [3] = assay: locomotor activity, 8-h time course protocol; assay type: in vivo; conditions: for locomotor stimulant activity across the 1-h and 8-h protocols, in words: 1-h and 8-h tests compared; for Emax / ED50: Mus musculus; for Emax: read-out: Locomotor Activity 8-Hour % Peak Cocaine, percent of cocaine's maximal effect, 30 min period of maximum stimulation; for ED50: read-out: Locomotor Activity 8-Hour ED50; for Locomotor Activity 8-Hour Time, min Period, length: duration of locomotor activity; for Locomotor Activity 8-Hour Time, min Period, max: time period of maximum effect
(h)DAT [4] = target: T2, (h)DAT (Homo sapiens, UniProt Q01959); assay: block of [3H]dopamine reuptake in HEK-(h)DAT cells; assay type: cell-based
T2 construct: expressed in transfected cells
T2 sequence (Q01959 whole entry): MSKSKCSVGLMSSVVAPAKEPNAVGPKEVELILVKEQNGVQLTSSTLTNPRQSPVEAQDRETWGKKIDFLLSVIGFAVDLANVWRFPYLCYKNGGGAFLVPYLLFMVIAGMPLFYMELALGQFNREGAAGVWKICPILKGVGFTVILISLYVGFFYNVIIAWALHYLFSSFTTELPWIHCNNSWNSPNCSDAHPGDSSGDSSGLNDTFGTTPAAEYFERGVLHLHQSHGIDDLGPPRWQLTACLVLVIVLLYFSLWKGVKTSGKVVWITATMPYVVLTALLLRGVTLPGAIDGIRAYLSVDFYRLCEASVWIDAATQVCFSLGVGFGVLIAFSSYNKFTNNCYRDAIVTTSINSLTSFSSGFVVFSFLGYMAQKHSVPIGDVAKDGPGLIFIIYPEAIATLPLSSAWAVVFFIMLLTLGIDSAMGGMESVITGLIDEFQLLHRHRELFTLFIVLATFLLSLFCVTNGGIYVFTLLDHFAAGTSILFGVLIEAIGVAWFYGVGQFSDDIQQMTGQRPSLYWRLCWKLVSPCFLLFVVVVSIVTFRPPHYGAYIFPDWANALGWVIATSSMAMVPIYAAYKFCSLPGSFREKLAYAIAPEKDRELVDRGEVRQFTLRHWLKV

rats [5] = assay: cocaine discrimination time-course study, oral administration; conditions: for ED50: Rattus norvegicus, po, 0.75 h; for generalization to cocaine: p.o., 50 mg/kg
(h)DAT [6] = target: T2, (h)DAT; assay: competition binding with [125I]RTI-55 at (h)DAT stably expressed in HEK293 cells; conditions: mean ± standard error of three independent experiments
rats [7] = assay: cocaine discrimination (2-lever operant), i.p. administration; conditions: for responders at 5 mg/kg / responders at 10 mg/kg / responders at 25 mg/kg / responders at 50 mg/kg / responders at 100 mg/kg / ED50: Rattus norvegicus, ip; for responders at 5 mg/kg / responders at 10 mg/kg / responders at 25 mg/kg / responders at 50 mg/kg / responders at 100 mg/kg: read-out: % cocaine lever responding; for ED50: read-out: Full Generalization ED50
(h)NET [8] = target: T1, (h)NET; assay: block of [3H]norepinephrine reuptake in HEK-(h)NET cells; conditions: read-out: Uptake, IC50 [3H]NE; mean ± standard error of three independent experiments
[9] = dose to produce 50% of the compound's maximal effect, 8-h
[10] = [3H]DA, read-out: IC50 for DA uptake inhibition
[11] = mean ± standard error of three independent experiments, read-out: Uptake, IC50 [3H]DA

SMILES | Emax (mice [2]) | ED50 (mice [2]) | locomotor stimulant activity across the 1-h and 8-h protocols, in words (mice [3]) | Emax (mice [3]) | ED50 (mice [3]; [9]) | Locomotor Activity 8-Hour Time, min Period, length (mice [3]) | Locomotor Activity 8-Hour Time, min Period, max (mice [3]) | ED50 (rats [5]) | Ki ((h)DAT [6]) | responders at 5 mg/kg (rats [7]) | responders at 10 mg/kg (rats [7]) | responders at 25 mg/kg (rats [7]) | responders at 50 mg/kg (rats [7]) | IC50 ((h)DAT [4]; [11]) | ED50 (rats [7]) | also measured
CCCCCCC(NC(C)(C)C)C(=O)c1cccc(Cl)c1 (stereo not shown) [Compound 2s, 2-(N-tert-Butylamino)-3′-chlorooctanophenone] | 61% | 33.3 mg/kg | weak stimulants in both tests | 60% | 9 mg/kg | 130 to 140 min | 110 to 140 min | 37.9 mg/kg | 0.51 µM | 0% | 0% | 49% | 50% | – | – | Ki ((h)NET [1]): 2.58 µM; IC50 ((h)DAT [4]; [10]): 135 nM; responders at 100 mg/kg (rats [7]): 67%; IC50 ((h)NET [8]): 4.89 µM
CCCCCC(NC(C)(C)C)C(=O)c1cccc(Cl)c1 (stereo not shown) [Compound 2r, 2-(N-tert-Butylamino)-3′-chloroheptanophenone] | 66% | 5.82 mg/kg | weak stimulants in both tests | 78% | 13.4 mg/kg | 280 to 460 min | 60 to 90 min | – | 0.709 µM | 0% | 0% | 34% | 17% | 1570 nM | – | Ki ((h)NET [1]): 4.3 µM; IC50 ((h)NET [8]): 2 µM
COC(=O)[C@H]1[C@@H](OC(=O)c2ccccc2)C[C@@H]2CC[C@H]1N2C [cocaine, reference compound] | 100% | 8.5 to 11 mg/kg | – | 100% | – | 40 to 100 min | 0 to 30 min | – | – | – | – | – | – | – | – | Locomotor Activity 1-Hour ED50 (mice [2]): 8.5-11^e mg/kg
CC(C(=O)c1cccc(Cl)c1)N(C)C(C)(C)C (stereo not shown) [Compound 2cc, 2-(N-Methyl-N-tert-butylamino)-3′-chloropropiophenone] | 78% | 14.9 mg/kg | weak stimulants in both tests | 67% | 11.2 mg/kg | 200 to 340 min | 80 to 110 min | – | 6.4 µM | 0% | 49% | 50% | – | 2060 nM | – | –
CC(NC(C)(C)C)C(=O)c1cccc(F)c1 (stereo not shown) [Compound 2c, 2-(tert-Butylamino)-3′-fluoropropiophenone] | 84% | 16.1 mg/kg | strong stimulants in both studies | 90% | 16.6 mg/kg | 150 min | 0 to 30 min | 27.1 mg/kg | 4.51 µM | 1% | 0% | 50% | 10% | 1460 nM | 10.8 mg/kg | –
CC(NC(C)(C)C)C(=O)c1ccc(Cl)cc1 (stereo not shown) [Compound 2f, 2-(N-tert-Butylamino)-4′-chloropropiophenone] | – | – | – | – | – | – | 180 to 210 min | – | 2.19 µM | 0% | 33% | 17% | 0% | 2320 nM | – | Locomotor Activity 1-Hour ED50 (mice [2]): NE^f; responders at 100 mg/kg (rats [7]): 34%
Cc1ccc(C(=O)C(C)NC(C)(C)C)cc1 (stereo not shown) [Compound 2h, 2-(N-tert-Butylamino)-4′-methylpropiophenone] | 65% | 8.77 mg/kg | weak stimulants in both tests | 52% | – | 60 to 140 min | 30 to 60 min | – | – | 0% | 0% | 17% | 67% | – | 36.7 mg/kg | ED50 (mice [3]; 8 h): 4.4 mg/kg; responders at 100 mg/kg (rats [7]): 10%
CC(NC(C)(C)C)C(=O)c1ccc(F)c(F)c1 (stereo not shown) [Compound 2i, 2-tert-Butylamino-3′,4′-difluoropropiophenone] | 58% | 54.6 mg/kg | – | – | – | – | – | – | – | – | 2% | 17% | 47% | – | – | –
CC(C)NC(C)C(=O)c1cccc(Cl)c1 (stereo not shown) [Compound 2w, 2-(N-Isopropylamino)-3′-chloropropiophenone] | 84% | – | activity similar to cocaine in the 1-h protocol but weakened significantly in the 8-h time-course study | 65% | – | 50 to 160 min | 20 to 50 min | – | 3.98 µM | – | – | – | – | – | – | ED50 (mice [3]; 8 h): 7.4 mg/kg; IC50 ((h)DAT [4]; [10]): 2000 nM; times less potent than bupropion as DA uptake inhibitor ((h)DAT [4]; relative to bupropion): 2 times
CC(NC(C)(C)C)C(=O)c1cc(F)cc(F)c1 (stereo not shown) [Compound 2m, 2-(tert-Butylamino)-3′,5′-difluoropropiophenone] | 93% | 39.7 mg/kg | strong stimulants in both studies | 95% | 33.7 mg/kg | 280 min | 0 to 30 min | 43.6 mg/kg | 5.66 µM | – | 17% | 50% | 83% | 5600 nM | 17.9 mg/kg | –
CC(NC(C)(C)C)C(=O)c1cccc(Cl)c1 (racemic) [Compound 2a, (±)-2-tert-butylamino-3′-chloropropiophenone, reference compound] | – | – | – | > 84% | – | 130 to 270 min | 0 to 30 min | 23.2 mg/kg | – | 0% | 67% | 66% | – | – | – | ED50 (mice [3]; 8 h): 6.5 mg/kg; times less potent inhibitor of DA uptake than cocaine ((h)DAT [4]; relative to cocaine): 3.5 times; ED50 (rats [5]; read-out: ED50 for drug-appropriate responding): 23.2 mg/kg; generalization to cocaine (rats [5]; 45 min): full generalization; generalization to cocaine (rats [5]; 90 min): partial generalization; generalization to the cocaine cue, in words (rats [7]; i.p.): substituted only partially; cocaine-appropriate responding (rats [7]; i.p., 10 mg/kg): 67%; response rate, in words (rats [7]; i.p., dose range given in the value): increased relative to vehicle control following 5-25 mg/kg
CC(NC(C)(C)C)C(=O)c1cc(Cl)cc(Cl)c1 (stereo not shown) [Compound 2n, 2-(tert-Butylamino)-3′,5′-dichloropropiophenone] | – | – | – | – | – | – | – | – | – | – | – | – | – | – | – | Locomotor Activity 1-Hour ED50 (mice [2]): NE^f
CC(NC(C)(C)C)C(=O)c1cccc(Br)c1 (stereo not shown) [Compound 2d, 2-(N-tert-Butylamino)-3′-bromopropiophenone] | 72% | 10.6 mg/kg | weak stimulants in both tests | 57% | 12.9 mg/kg | 120 min | 0 to 30 min | 52.4 mg/kg | 4.2 µM | 1% | 27% | 83% | – | – | 11.4 mg/kg | IC50 ((h)DAT [4]; [10]): 950 nM; IC50 ((h)NET [8]): 6.5 µM
CCN(CC)C(C)C(=O)c1cccc(Cl)c1 (stereo not shown) [Compound 2ee, 2-(N,N-Diethylamino)-3′-chloropropiophenone] | 55% | 16.6 mg/kg | moderate activity in the 1-h test with increased activity in the time-course study | 90% | 20 mg/kg | 130 to 240 min | 20 to 50 min | – | 2.21 µM | 1% | 66% | 82% | – | 1740 nM | 5.88 mg/kg | Ki ((h)NET [1]): 4.48 µM; IC50 ((h)NET [8]): 4.6 µM
Cc1cccc(C(=O)C(C)NC(C)(C)C)c1 (stereo not shown) [Compound 2e, 2-(N-tert-Butylamino)-3′-methylpropiophenone] | 76% | 31 mg/kg | – | – | – | – | – | – | – | – | – | – | – | – | – | –
